Patent US9265707B2, “Cosmetic composition comprising coumestrol or a bean extract containing coumestrol for skin care” (AMOREPACIFIC CORPORATION, priority 2010, dated 2016)

Legend:
Cyclooxygenase-2 (COX-2) = test: Inhibition of COX-2 biosynthesis induced by LPS (western blotting); assay type: cell-based; details: human fibroblasts, 24 hours
Procedure: Human fibroblasts (CAS-C-004-5C, Invitrogen, CA, USA) were used to evaluate the coumestrol's effect of inhibiting COX-2 biosynthesis. The cells were seeded onto a 6-well plate at a density of 5×10^4 cells per well and cultured for about 24 hours in a medium containing 10% FBS until ˜80% confluency. The cells were treated with coumestrol diluted to a final concentration of 0.01, 0.1 or 1 μM in a fresh FBS-free medium and then cultured for 24 hours at 37° C. in a 5% (v/v) CO2 incubator. The cells were harvested and the produced COX-2 was quantitated by western blotting.

[1] = system: ATP production in human fibroblasts; test: ATP production in cells (ATP determination kit); assay type: cell-based; details: 2.5 μM; human fibroblasts treated as in Test Example 4; untreated control 803
Procedure: (§1) Human fibroblasts (CAS-C-004-5C, Invitrogen, CA, USA) were used to evaluate the coumestrol's effect of inhibiting glycation of skin cells. The cells were seeded onto a 6-well plate at a density of 5×10^4 cells per well and cultured for about 24 hours in a medium containing 10% FBS until ˜about 80% confluency. After washing once with PBS and adding 100 μL of PBS, the cells were irradiated with UVB of 50 mJ/cm^2. After removing the PBS, the cells were treated with coumestrol diluted to a final concentration of 2.5 μM in a fresh FBS-free medium. Glycation of skin cells was evaluated using the Oxiselect™ advanced glycation end product (AGE) ELISA kit 24 hours after the treatment with the test substance.
Following treatment of human fibroblasts (CAS-C-004-5C, Invitrogen, CA, USA) as in Test Example 4, ATP production in the cells was evaluated using an ATP determination kit (Invitrogen, A22066).

type I pN collagen = test: Type I pN collagen synthesis (PIP EIA kit); assay type: cell-based; details: human fibroblasts, 48 hours, untreated control 100
Procedure: Human fibroblasts (CAS-C-004-5C, Invitrogen, CA, USA) were used to evaluate the coumestrol's effect on type I pN collagen synthesis. The cells were seeded onto a 24-well plate at a density of 1×10^4 cells per well and cultured for about 24 hours in a medium containing 10% FBS until ˜about 80% confluency. The cells were treated with coumestrol diluted to a final concentration of 0.01, 0.1 or 1 μM in a fresh FBS-free medium. The synthesized quantity of type I pN collagen was measured using a procollagen type I C-peptide (PIP) EIA kit (MK101; Takara Shuzo, Kyoto, Japan) by collecting a supernatant from the cell culture 48 hours after the treatment with the test substance. The quantity of type I pN collagen was determined from the total protein quantity.

MMP-1 = test: Inhibition of UV-induced MMP-1 expression (ELISA); assay type: cell-based; details: Fibroblast, light or radiation study, human fibroblasts, UVB 15 mJ/cm^2, 48 hours, untreated control 100, UV-treated control 132, read-out: MMP1 activity (%)
Procedure: Human fibroblasts (CAS-C-004-5C, Invitrogen, CA, USA) were used to evaluate the coumestrol's effect of inhibiting UV-induced MMP-1 expression. The cells were seeded onto a 24-well plate at a density of 1×10^4 cells per well and cultured for about 24 hours in a medium containing 10% FBS until ˜about 80% confluency. After replacing the medium with an FBS-free medium, the cells were cultured for 24 hours. After washing once with PBS and adding 100 μL of PBS, the cells were irradiated with UVB of 15 mJ/cm^2. After removing the PBS, the cells were treated with coumestrol diluted to a final concentration of 0.01, 0.1 or 1 μM in a fresh FBS-free medium. Expression of MMP-1 was evaluated 48 hours after the treatment with the test substance. The expression of MMP-1 was evaluated using an enzyme-linked immunosorbent assay (ELISA) kit (RPN 2610; Biotrak Amersham Pharmacia Biotech, UK) after collecting a supernatant from the cell culture. The quantity of MMP-1 was determined from the total protein quantity.

[2] = system: Mouse melanocytes (MeI-Ab cells); test: Inhibition of melanin production; assay type: cell-based; details: Melanocyte, read-out: Melanin production inhibiting effect (%)
[3] = system: UVB-induced reactive oxygen species (ROS) in keratinocytes; test: Scavenging of UVB-induced reactive oxygen species (DCFH-DA fluorescence); assay type: cell-based; details: UVB 30 mJ/cm^2, relative to UV-treated control
Description: 2′,7′-Dichlorodihydrofluorescein diacetate (DCFH-DA; Molecular Probes, Inc., OR, USA) was used to evaluate the coumestrol's effect of scavenging UVB-induced ROS. DCFH-DA is an fat-soluble substance well known as a detector of ROS in cells. It is easily absorbed by cells and turned into water-soluble 2′,7′-dichlorodihydrofluorescein as a result of hydrolysis of the acetate group by esterase in the cells. Since it is turned to 2′,7′-dichlorofluorescein (DCF) which emits fluorescence after reaction with intracellular oxidizing agents, the quantity of intracellular ROS can be evaluated by measuring the intensity of fluorescence from cells treated with DCFH-DA.
Keratinocytes (acquired from Dr. Fusenig at German Cancer Research Center) were seeded onto a 96-well black plate (Greiner BioOne Inc., NC, USA) for fluorescence measurement at a density of 1×10^4 cells per well and cultured for 24 hours. Then, the cells were treated with coumestrol diluted in fresh FBS-free medium to a final concentration of 0.01, 0.1 or 1 μM. After addition of the test substance, the cells were cultured for 24 hours. After removing the remaining medium by washing with HEPES-buffered control salt solution (HCSS), 20 μM DCFH-DA in 100 μL of HCSS was added. […] Then, after adding 100 μL of HCSS, the cells were irradiated with UVB of 30 mJ/cm^2 to induce production of ROS. […] The fluorescence intensity of DCF was measured with the Wallac VICTOR2 fluorometer (Wallac, Turku, Finland) at excitation wavelength of 485 nm and emission wavelength of 530 nm. ROS scavenging effect (%) relative to the control group was calculated from the measured fluorescence intensity.

[4] = system: prostaglandin E2 production in human fibroblasts; test: Inhibition of prostaglandin E2 (PGE2) production; assay type: cell-based; details: Fibroblast, A23187 and arachidonic acid stimulation, relative to coumestrol-untreated group, average of 5, read-out: Prostaglandin E2 production inhibiting effect (%)
Procedure: The coumestrol's effect of inhibiting prostaglandin E2 production was tested as follows. Human fibroblasts (CAS-C-004-5C, Invitrogen, CA, USA) were cultured for 24 hours in a CO2 incubator. After replacing the medium with a fresh FBS-free medium and culturing for 2 hours, the cells were treated with coumestrol diluted to a final concentration of 0.01, 0.1 or 1 μM in a fresh FBS-free medium. The cells were then cultured for 2 hours at 37° C. in a 5% (v/v) CO2 incubator. Subsequently, after treating with 50 μM Calcium Ionophore A23187 and arachidonic acid for 5 minutes to stimulate prostaglandin E2, the cells were lysed and prostaglandin E2 was quantitated by measuring absorbance at 450 nm using an ELISA reader. The inhibiting effect (%) was calculated relative to the coumestrol-untreated group. Measurement was made 5 times and the result was averaged.

atopic symptoms = test: Improvement of atopic dermatitis (questionnaire, 12 weeks of ointment); assay type: in vivo, human; details: ointment containing 0.1% coumestrol, twice a day, people with atopic symptoms
Description: They were asked to apply the ointment for 12 weeks, twice a day, at the sites of atopic symptoms. 12 weeks later, the improvement of the atopic symptoms was examined using a questionnaire. Improvement of typical symptoms of atopic dermatitis including “itchiness”, “dryness”, “keratinization”, “dandruff”, “erythema”, “swelling”, “skin fissure” and “ooze and eczema” was examined. The subjects were asked to score the improvement of the symptoms and the result was averaged to evaluate the improvement of atopic dermatitis.

[5] = system: transepidermal water loss; test: Skin moisturization: transepidermal water loss; assay type: in vivo, human; details: ointment containing 0.1% coumestrol, 24° C., RH 40%
Description: They were asked to apply the ointment for 12 weeks, twice a day, at the sites of atopic symptoms. 12 weeks later, the improvement of the atopic symptoms was examined using a questionnaire. Improvement of typical symptoms of atopic dermatitis including “itchiness”, “dryness”, “keratinization”, “dandruff”, “erythema”, “swelling”, “skin fissure” and “ooze and eczema” was examined. The subjects were asked to score the improvement of the symptoms and the result was averaged to evaluate the improvement of atopic dermatitis. In order to evaluate the improvement of skin moisturizing ability, transepidermal water loss was measured for the subjects of Test Example 9 under constant-temperature, constant-humidity conditions (24° C., RH 40%) using a […].

[6] = system: advanced glycation end product (AGE) in human fibroblasts; test: Inhibition of glycation of skin cells (AGE ELISA); assay type: cell-based; details: 2.5 μM, UVB 50 mJ/cm^2, 24 hours, untreated control 0.156
Procedure: as §1

O=c1oc2cc(O)ccc2c2oc3cc(O)ccc3c12 [Coumestrol, 3,9-dihydroxy-6H-benzofuro(3,2-c)(1)benzopyran-6-one]
COX-2 expression level (% relative to control) (Cyclooxygenase-2 (COX-2); 0.01 μM): 89 % relative to control | COX-2 expression level (% relative to control) (Cyclooxygenase-2 (COX-2); 0.1 μM): 81 % relative to control | COX-2 expression level (% relative to control) (Cyclooxygenase-2 (COX-2); 1 μM): 64 % relative to control | Concentration of ATP [1]: 917 nM | Synthesis of type I pN collagen (%) (type I pN collagen; 0.01 μM): 115% | Synthesis of type I pN collagen (%) (type I pN collagen; 0.1 μM): 126% | Synthesis of type I pN collagen (%) (type I pN collagen; 1 μM): 129% | activity at 0.01 µM (MMP-1; 0.01 μM): 115% | activity at 0.1 µM (MMP-1; 0.1 μM): 102% | activity at 1 µM (MMP-1; 1 μM): 98% | inhibition at 0.01 µM [2]: 1.2% | inhibition at 0.1 µM [2]: 24.4% | inhibition at 1 µM [2]: 30.1% | ROS scavenging effect (%) ([3]; 0.01 μM): 18.7% | ROS scavenging effect (%) ([3]; 0.1 μM): 25.6% | ROS scavenging effect (%) ([3]; 1 μM): 55.1% | inhibition at 0.01 µM ([4]; 0.01 μM): 12.8% | inhibition at 0.1 µM ([4]; 0.1 μM): 24.8% | inhibition at 1 µM ([4]; 1 μM): 38.2% | Number of subjects Aggravated (atopic symptoms): 0 | Number of subjects Improved (atopic symptoms): 8 | Number of subjects Not changed (atopic symptoms): 2 | Number of subjects Remarkably improved (atopic symptoms): 5 | Transepidermal water loss (%) ([5]; 1 week later, control 34): 30% | Transepidermal water loss (%) ([5]; 4 weeks later, control 39): 32% | Transepidermal water loss (%) ([5]; 8 weeks later, control 41): 26% | Transepidermal water loss (%) ([5]; 12 weeks later, control 36): 15% | Concentration of glycation end product [6]: 0.077 µg/mL

Oc1ccc(O)cc1 [Hydroquinone, hydroquinone, reference compound]
inhibition at 10 µM ([2]; 10 μM (positive control), MeI-Ab cells): 41.1%
